Source: PubChem BioAssay AID1918949 (Molecular Pharmacology Branch, DTP, NCI, 2023)
Values joined by “and” are separate entries in the source; they are usually repeats but may differ in a detail not shown here. Equal values may be shown once.

System: K24384-001-R-PDC complex spheroid viability
Test: Anticancer human tumor K24384-001-R-PDC patient-derived pancreatic adenocarcinoma cell line growth inhibition
Details: for viability, T/C: stronger effect = lower value
Excerpt: Multicellular complex tumor spheroid response to LSD1 Inhibitor Iadademstat in combination with a variety of drugs and investigational agents in selected tumor cell lines
The current study was undertaken to assess response to LSD1 inhibitors in combination with standard-of-care drugs and investigational agents in solid tumor complex spheroid models as well as in the K-562 leukemia. Complex spheroids include a stromal component modeled by human endothelial cells (HUVEC) and fibroblasts modeled by human mesenchymal stem cells (MSCs). The concentration ranges selected for each drug and investigational agent were based upon clinically achievable concentrations if the clinical Cmax of the agent was known.
Compounds. The drugs and investigational agents used in this study are listed on Table 1. All of the agents used, including staurosporine (NSC755774) and gemcitabine (NSC613327), were obtained from the Developmental Therapeutics Program, NCI. FDA-approved anticancer drugs are available from the NCI at http://dtp.nci.nih.gov/branches/dscb/oncology_drugset_explanation.html. Drugs and investigational agents were >95% pure by proton nuclear magnetic resonance (NMR) and liquid chromatography/mass spectrometry (LC/MS). Stock solutions were prepared at 400x in DMSO, stored at -70 degrees C, and diluted in fresh medium prior to their use. The final concentration of DMSO in cell culture wells never exceeded 0.25% (v/v). The FDA-approved anticancer drug set is available from the Developmental Therapeutics Program at https://dtp.cancer.gov/organization/dscb/obtaining/available_plates.htm. All drugs and investigational agents were tested over a range starting from a high concentration at or near the clinical Cmax and decreasing in half-log increments. If the clinical Cmax for an agent had not been determined, the highest concentration tested was 10 microM.
Cell Lines. The patient-derived cancer cell (PDC) lines: 292921-168-R-J2-PDC, K24384-001-R-PDC, and 521955-158-R2-J5-PDC pancreatic carcinomas, 556581-035-R-J1 ovarian carcinoma, 324938-238-R-J1-PDC, 855422-203-R-J1-PDC and 883617-216-R-J1-PDC urothelial bladder carcinomas, 743489-274-T-PDC renal cell carcinoma, 138582-R-J1 Merkel cell tumor, K60290-347-R-J1 and K57222-313-R-J1-PDC glioblastomas, 653999-131-R-J2-PDC, LG0703-F948-PDC, and 349418-098-R-PDC non-small cell lung carcinomas, 885512-296-R-J2-PDC, 171881-019-R-J1-PDC breast carcinomas and 186277-243-T-J2-PDC and 233499-124-R-J2-PDC colon carcinomas were obtained from the NCI Patient-Derived Models Repository (PDMR, https://pdmr.cancer.gov). The established cell lines NCI/ADR-RES (RRID:CVCL_14520 and OVCAR-5 (RRID:CVCL_1628) ovarian carcinomas, 786-O (RRID:CVCL_1051) and A498 (RRID:CVCL_A498) renal cell carcinoma, NCI-H211 (ATCC, cat. CRL-5824; RRID:CVCL_1529), NCI-H196 (ATCC, cat. CRL-5823, RRID:CVCL_1509), SW 1271 (ATCC, cat. CRL-2177, RRID:CVCL_1716) and NCI-H1876 (ATCC, cat. CRL-5902, RRID:CVCL_1503) small cell lung carcinomas, MDA-MB-231 (RRID:CVCL_0062) and MDA-MB-468 (RRID:CVCL_0419)breast carcinomas (10-12). Pooled donor human umbilical vein endothelial cells (HUVEC, Lonza, cat. CC-2519) and human mesenchymal stem cells (hMSC, Lonza, cat. PT-2501) were purchased from Lonza (Walkersville, MD).
Cell Culture. All cells were maintained in an incubator at 37 degrees C and 5% CO2 with 95% humidity. The PDC lines were cultured according to standard operating procedures established by the NCI PDMR (https://pdmr.cancer.gov). Briefly all PDCs were thawed and cultured in Matrigel-coated flasks prepared with a working solution of 1X Ham's F-12 nutrient mix, without supplementation (Invitrogen, Waltham, MA, cat. 11765054), 100 U/mL penicillin-streptomycin (Invitrogen, cat. 15140122), and 2.5% Matrigel (Corning Inc., Corning, NY, cat. 354248) for the first three passages. […]

[1] = curve of first compound, second compound 0.1 µM
[2] = curve of first compound, second compound 0.316 µM
[3] = curve of first compound, second compound 1 µM
[4] = curve of first compound, second compound 3.16 µM
[5] = curve of first compound, second compound 10 µM
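Also: spheroids exposed to agents for seven days before luminescence viability reading.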
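For viability, T/C in this document: 100% = DMSO vehicle control viability.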

O=C(C=Cc1cccc(S(=O)(=O)Nc2ccccc2)c1)NO + NC1CC1c1ccc(-c2cccc(O)c2)cc1
IC50 [1]: 240 nM
IC50 [2]: 233 nM
IC50 [3]: 229 nM
IC50 [4]: 235 nM
IC50 [5]: 185 nM
viability, T/C (second compound 0.1 µM, first compound 0.00949 µM): 105%
viability, T/C (second compound 0.1 µM, first compound 0.03 µM): 111%
viability, T/C (second compound 0.1 µM, first compound 0.0949 µM): 95.5%
viability, T/C (second compound 0.1 µM, first compound 0.3 µM): 39.3%
viability, T/C (second compound 0.1 µM, first compound 0.949 µM): 3.97%
viability, T/C (second compound 0.1 µM, first compound 3 µM): 2.49%
viability, T/C (second compound 0.316 µM, first compound 0.00949 µM): 90%
viability, T/C (second compound 0.316 µM, first compound 0.03 µM): 108%
viability, T/C (second compound 0.316 µM, first compound 0.0949 µM): 117%
viability, T/C (second compound 0.316 µM, first compound 0.3 µM): 34.4%
viability, T/C (second compound 0.316 µM, first compound 0.949 µM): 4.35%
viability, T/C (second compound 0.316 µM, first compound 3 µM): 1.43%
viability, T/C (second compound 1 µM, first compound 0.00949 µM): 80.9%
viability, T/C (second compound 1 µM, first compound 0.03 µM): 113%
viability, T/C (second compound 1 µM, first compound 0.0949 µM): 98.1%
viability, T/C (second compound 1 µM, first compound 0.3 µM): 35.6%
viability, T/C (second compound 1 µM, first compound 0.949 µM): 5.51%
viability, T/C (second compound 1 µM, first compound 3 µM): 0.1%
viability, T/C (second compound 3.16 µM, first compound 0.00949 µM): 85%
viability, T/C (second compound 3.16 µM, first compound 0.03 µM): 124%
viability, T/C (second compound 3.16 µM, first compound 0.0949 µM): 103%
viability, T/C (second compound 3.16 µM, first compound 0.3 µM): 35.5%
viability, T/C (second compound 3.16 µM, first compound 0.949 µM): 4.17%
viability, T/C (second compound 3.16 µM, first compound 3 µM): 0.1%
viability, T/C (second compound 10 µM, first compound 0.00949 µM): 81.1%
viability, T/C (second compound 10 µM, first compound 0.03 µM): 114%
viability, T/C (second compound 10 µM, first compound 0.0949 µM): 70.7%
viability, T/C (second compound 10 µM, first compound 0.3 µM): 32.7%
viability, T/C (second compound 10 µM, first compound 0.949 µM): 5.8%
viability, T/C (second compound 10 µM, first compound 3 µM): 0.18%

CC[C@@]1(O)C(=O)OCc2c1cc1n(c2=O)Cc2cc3c(CN(C)C)c(O)ccc3nc2-1 + NC1CCC(NC2CC2c2ccccc2)CC1
IC50 [1]: 89.9 nM
IC50 [2]: > 100 nM
IC50 [3]: 88.6 nM
IC50 [4]: 84.5 nM
IC50 [5]: > 100 nM
viability, T/C (second compound 0.1 µM, first compound 0.000316 µM): 93.1%
viability, T/C (second compound 0.1 µM, first compound 0.001 µM): 87.2%
viability, T/C (second compound 0.1 µM, first compound 0.00316 µM): 77.6%
viability, T/C (second compound 0.1 µM, first compound 0.01 µM): 68.9%
viability, T/C (second compound 0.1 µM, first compound 0.0316 µM): 61.2%
viability, T/C (second compound 0.1 µM, first compound 0.1 µM): 48.1%
viability, T/C (second compound 0.316 µM, first compound 0.000316 µM): 99.3%
viability, T/C (second compound 0.316 µM, first compound 0.001 µM): 81.2%
viability, T/C (second compound 0.316 µM, first compound 0.00316 µM): 82.3%
viability, T/C (second compound 0.316 µM, first compound 0.01 µM): 84%
viability, T/C (second compound 0.316 µM, first compound 0.0316 µM): 70.2%
viability, T/C (second compound 0.316 µM, first compound 0.1 µM): 49.6%
viability, T/C (second compound 1 µM, first compound 0.000316 µM): 89.5%
viability, T/C (second compound 1 µM, first compound 0.001 µM): 82.7%
viability, T/C (second compound 1 µM, first compound 0.00316 µM): 75.5%
viability, T/C (second compound 1 µM, first compound 0.01 µM): 59%
viability, T/C (second compound 1 µM, first compound 0.0316 µM): 54.6%
viability, T/C (second compound 1 µM, first compound 0.1 µM): 49%
viability, T/C (second compound 3.16 µM, first compound 0.000316 µM): 93.7%
viability, T/C (second compound 3.16 µM, first compound 0.001 µM): 91.8%
viability, T/C (second compound 3.16 µM, first compound 0.00316 µM): 81%
viability, T/C (second compound 3.16 µM, first compound 0.01 µM): 77%
viability, T/C (second compound 3.16 µM, first compound 0.0316 µM): 64.5%
viability, T/C (second compound 3.16 µM, first compound 0.1 µM): 47%
viability, T/C (second compound 10 µM, first compound 0.000316 µM): 101%
viability, T/C (second compound 10 µM, first compound 0.001 µM): 88.2%
viability, T/C (second compound 10 µM, first compound 0.00316 µM): 88.7%
viability, T/C (second compound 10 µM, first compound 0.01 µM): 61.7%
viability, T/C (second compound 10 µM, first compound 0.0316 µM): 53.9%
viability, T/C (second compound 10 µM, first compound 0.1 µM): 49.8%

Nc1ncn(C2CC(O)C(CO)S2)c(=O)n1 (configuration not stated)
viability, T/C (compound 0.000949 µM): 93.1% and 95.2%
viability, T/C (compound 0.003 µM): 96.3% and 88.6%
viability, T/C (compound 0.00949 µM): 96.3% and 85.4%
viability, T/C (compound 0.03 µM): 83.3% and 89.3%
viability, T/C (compound 0.0949 µM): 81.3% and 69.1%
viability, T/C (compound 0.3 µM): 55.9% and 56.2%
IC50 (curve of compound): > 300 nM
